# Results as given in the supplement of paper PMC10331698.
# ± gives the standard deviation of the averaged measurements.
# Experiments:
# Assay in all cases: level (log10 ratio to DMSO vehicle control); higher = higher biomarker level / cell amount than vehicle control
# Conditions in all cases: in DMSO
# [1] = compound: C=CC(=O)OCCC(F)(F)C(F)(F)C(F)(F)C(F)(F)C(F)(F)C(F)(F)C(F)(F)C(F)(F)F [8:2 Fluorotelomer acrylate]
# Experimental: (§1)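 BioMAP Diversity Plus panel of 12 human primary cell co-culture systems (3C, 4H, LPS, SAg, BT, BF4T, BE3C, CASM3C, HDF3CGF, KF3CT, MyoF, Mphg). Compounds were added 1 h before stimulation and left for 24 h (MyoF 48 h; BT 72 h for soluble read-outs or 6 d for IgG). Biomarkers were read by ELISA, cytotoxicity by SRB, PBMC viability and proliferation by Alamar Blue. Each well value was divided by the mean of 8 DMSO control wells on the same plate and log10 transformed; duplicate blinded samples were tested at 4 concentrations.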
# Methotrexate = compound: CN(Cc1cnc2nc(N)nc(N)c2n1)c1ccc(C(=O)N[C@@H](CCC(=O)O)C(=O)O)cc1 [Methotrexate]
# Experimental: as §1
# [2] = compound: O=P(O)(O)CCC(F)(F)C(F)(F)C(F)(F)C(F)(F)C(F)(F)C(F)(F)F [2-(Perfluorohexyl)ethylphosphonic acid]
# Experimental: as §1
# [3] = compound: O=S(=O)(OCC(F)(F)F)C(F)(F)C(F)(F)C(F)(F)C(F)(F)F [2,2,2-Trifluoroethyl perfluorobutanesulfonate]
# Experimental: as §1
# Perfluoropinacol = compound: OC(C(F)(F)F)(C(F)(F)F)C(O)(C(F)(F)F)C(F)(F)F [Perfluoropinacol]
# Experimental: as §1
# [4] = compound: OCCCCC(F)(F)C(F)(F)C(F)(F)C(F)(F)F [4:4 Fluorotelomer alcohol]
# Experimental: as §1
Test System,level (log10) ([1]; 6700 nM),level (log10) ([1]; 20000 nM),level (log10) ([1]; 60000 nM),level (log10) (Methotrexate; 1500 nM),level (log10) (Methotrexate; 4400 nM),level (log10) (Methotrexate; 13000 nM),level (log10) (Methotrexate; 40000 nM),level (log10) ([2]; 6700 nM),level (log10) ([2]; 20000 nM),level (log10) ([2]; 60000 nM),level (log10) ([3]; 6700 nM),level (log10) ([3]; 20000 nM),level (log10) ([3]; 60000 nM),level (log10) (Perfluoropinacol; 6700 nM),level (log10) (Perfluoropinacol; 20000 nM),level (log10) ([4]; 6700 nM),level (log10) ([4]; 20000 nM),level (log10) ([4]; 60000 nM)
BF4T:tPA,-0.046 ± 0.013,-0.0635 ± 0.023,-0.0465 ± 0.012,0.018 ± 0.0071,-0.0155 ± 0.011,0.005 ± 0.014,0.0155 ± 0.018,-0.059 ± 0.0014,-0.067 ± 0.0057,-0.0615 ± 0.064,0.0025 ± 0.0021,0.011 ± 0.023,0.015 ± 0.0028,-0.028 ± 0.011,0.032 ± 0.014,-0.0095 ± 0.011,-0.01,0.0205 ± 0.036
SAg:SRB,-0.004 ± 0.0028,-0.0055 ± 0.011,0.001 ± 0.014,-0.002 ± 0.0042,-0.007 ± 0.0014,0.003 ± 0.0071,-0.0015 ± 0.0021,-0.008 ± 0.011,0.0025 ± 0.013,-0.0355 ± 0.035,0.0025 ± 0.013,-0.0045 ± 0.0021,-0.005,-0.0285 ± 0.0078,-0.123 ± 0.0021,0.0005 ± 0.0021,0.0085 ± 0.015,-0.0055 ± 0.0035
BE3C:CXCL9/MIG,-0.0115 ± 0.0035,-0.0075 ± 0.00071,0.0115 ± 0.021,0.006 ± 0.0071,0.013 ± 0.0028,0.013 ± 0.014,0.01 ± 0.0057,-0.008 ± 0.0057,-0.0075 ± 0.0021,0.003 ± 0.02,0.031 ± 0.0085,0.0065 ± 0.0078,0.0135 ± 0.0021,-0.0045 ± 0.015,0.002 ± 0.0071,0.01 ± 0.0042,-0.0025 ± 0.005,0.0095 ± 0.0092
BT:sIL-17A,0.0205 ± 0.054,0.0765 ± 0.13,-0.141 ± 0.084,-0.0735 ± 0.14,-0.02 ± 0.058,-0.002 ± 0.11,-0.197 ± 0.18,0.018 ± 0.11,-0.07 ± 0.017,-0.135 ± 0.059,0.053 ± 0.2,0.214 ± 0.093,0.184 ± 0.1,-0.177 ± 0.11,-0.642 ± 0.061,0.026 ± 0.12,-0.003 ± 0.0099,-0.111 ± 0.061
BF4T:SRB,-0.004 ± 0.0028,-0.011 ± 0.013,0.0055 ± 0.0092,-0.003 ± 0.017,-0.0105 ± 0.0078,-0.007 ± 0.0071,0.0045 ± 0.023,-0.007 ± 0.0042,-0.011 ± 0.0014,-0.0055 ± 0.016,0.005 ± 0.0042,0.002 ± 0.0028,0.0055 ± 0.0021,-0.0135 ± 0.0021,-0.031 ± 0.0014,-0.0105 ± 0.0092,-0.0085 ± 0.0064,-0.002 ± 0.011
4H:SRB,-0.0045 ± 0.019,-0.0035 ± 0.005,0.01,0.0105 ± 0.0078,-0.0075 ± 0.011,0.0035 ± 0.00071,0.007 ± 0.0014,-0.005 ± 0.024,-0.0065 ± 0.021,-0.0005 ± 0.032,-0.0025 ± 0.00071,-0.0085 ± 0.011,-0.0015 ± 0.023,-0.0345 ± 0.015,-0.13 ± 0.0078,-0.003 ± 0.013,0 ± 0.018,-0.001 ± 0.023
BE3C:CD54/ICAM-1,-0.016,0 ± 0.0014,0.019 ± 0.04,0.021 ± 0.014,-0.002 ± 0.013,0.013 ± 0.031,0.0065 ± 0.035,-0.01 ± 0.0028,-0.02 ± 0.021,-0.0085 ± 0.03,-0.002 ± 0.0071,-0.013 ± 0.0071,-0.018 ± 0.0057,-0.003 ± 0.0085,-0.0095 ± 0.0035,0.0085 ± 0.015,-0.0025 ± 0.023,-0.0045 ± 0.0064
3C:HLA-DR,0.009 ± 0.0071,0.0055 ± 0.013,0.0175 ± 0.029,-0.014 ± 0.031,-0.012 ± 0.038,-0.013 ± 0.025,-0.011 ± 0.03,-0.0055 ± 0.012,-0.0135 ± 0.00071,-0.0085 ± 0.044,-0.01 ± 0.011,-0.0135 ± 0.0092,-0.032 ± 0.0014,-0.0405 ± 0.0035,-0.132 ± 0.028,-0.002 ± 0.042,-0.0065 ± 0.026,0.006 ± 0.033
BF4T:CD106/VCAM-1,-0.038 ± 0.0071,-0.06 ± 0.024,-0.0235 ± 0.076,0.014 ± 0.024,0.0165 ± 0.029,0.0245 ± 0.016,0.0245 ± 0.011,-0.0195 ± 0.03,-0.0165 ± 0.016,0.0055 ± 0.047,-0.0135 ± 0.07,-0.0035 ± 0.074,-0.049 ± 0.027,-0.0455 ± 0.0021,-0.096,-0.0145 ± 0.0064,-0.0205 ± 0.018,0.0135 ± 0.043
LPS:CD69,0.012 ± 0.054,-0.044 ± 0.05,-0.052 ± 0.061,-0.0175 ± 0.015,-0.035 ± 0.033,-0.0385 ± 0.044,-0.0175 ± 0.0092,-0.026 ± 0.075,0.001 ± 0.051,0.0815 ± 0.029,0.0015 ± 0.15,0.001 ± 0.088,-0.073 ± 0.16,-0.105 ± 0.063,-0.192 ± 0.064,-0.0335 ± 0.016,-0.0135 ± 0.015,-0.0135 ± 0.015
4H:CCL26/Eotaxin-3,0.0235 ± 0.0021,-0.012 ± 0.018,0.01 ± 0.048,-0.018 ± 0.0085,-0.008 ± 0.011,0.014 ± 0.021,-0.002 ± 0.014,-0.052 ± 0.09,-0.0765 ± 0.066,0 ± 0.018,0.0025 ± 0.064,0.01 ± 0.054,-0.0095 ± 0.074,-0.03 ± 0.048,-0.179 ± 0.037,-0.017 ± 0.021,-0.0345 ± 0.0021,-0.025 ± 0.011
SAg:CD69,-0.01 ± 0.027,-0.025 ± 0.016,-0.0295 ± 0.032,-0.001 ± 0.0085,-0.033 ± 0.024,-0.0185 ± 0.061,-0.003 ± 0.04,-0.004 ± 0.025,-0.008 ± 0.02,0.009 ± 0.03,-0.0025 ± 0.0092,-0.0175 ± 0.025,-0.049 ± 0.042,-0.039 ± 0.017,-0.19 ± 0.033,0.009 ± 0.0057,-0.002 ± 0.0028,0.001 ± 0.02
LPS:CD106/VCAM-1,-0.029 ± 0.013,-0.05 ± 0.013,-0.053 ± 0.0099,0.0075 ± 0.03,-0.0065 ± 0.011,0.0085 ± 0.00071,-0.0145 ± 0.005,-0.021 ± 0.021,-0.0185 ± 0.0021,-0.011 ± 0.023,0.0055 ± 0.052,-0.0075 ± 0.015,-0.076 ± 0.013,0.0045 ± 0.013,-0.0825 ± 0.015,-0.001 ± 0.011,0.0045 ± 0.018,0.003 ± 0.02
SAg:CXCL8/IL-8,-0.021 ± 0.0099,-0.029 ± 0.0099,-0.0185 ± 0.043,0.023 ± 0.037,-0.0215 ± 0.022,-0.004 ± 0.02,0.0195 ± 0.052,-0.003 ± 0.038,0.015 ± 0.023,0.143 ± 0.0021,0.0205 ± 0.029,0.034 ± 0.024,0.134 ± 0.086,0.0725 ± 0.029,-0.139 ± 0.041,0.0075 ± 0.0021,0.002 ± 0.0057,-0.0015 ± 0.025
